Source: patent US6703397B2, “Pyrimidinyl methyl indole derivatives with antibacterial activity” (Basilea Pharmaceutica AG, priority 2000, dated 2004)
Converted amounts (≈) assume the structure as drawn. Read-outs that look alike come from different tables or passages of the source.

Experiments:
[1] = test system: Streptococcus pneumoniae ATCC 49619; experiment: MIC against Streptococcus pneumoniae ATCC 49619 (trimethoprim- and penicillin-susceptible reference strain); type: cell-based; settings: Streptococcus pneumoniae ATCC 49619, trimethoprim- and penicillin-susceptible; for MIC: ATCC49619, read-out: Spn 49619 MIC
Experimental: The following Tables 1 and 2 contain inhibitory concentrations determined in the above test for representative members of the class of compound defined by formula I. The following microorganisms were tested: Col. 1: […]

[2] = test system: Streptococcus pneumoniae 1/1; experiment: MIC against Streptococcus pneumoniae 1/1 (trimethoprim- and penicillin-resistant clinical isolate, serotype 6); type: cell-based; settings: Streptococcus pneumoniae 1/1, trimethoprim- and penicillin-resistant, serotype 6; for MIC: read-out: Spn 1/1 MIC
Experimental: The following Tables 1 and 2 contain inhibitory concentrations determined in the above test for representative members of the class of compound defined by formula I. The following microorganisms were tested: […]
Col. 2: MIC Spn1/1; μg/ml (Streptococcus pneumoniae 1/1, Trimethoprim- and Penicillin-resistant, Serotype 6; clinical isolate, stored at −80° C.). Lit.: H. Locher et al., Can. J. Infect. Dis. 6: Suppl. C, p 469C.

[3] = target: purified DHFR of strain Spn1/1 (Streptococcus pneumoniae serotype 4, UniProt Q54801, E20D/I100L/L135F/P70S/Q81H); experiment: biochemical
purified DHFR of strain Spn1/1, sequence (Q54801 whole entry E20D/P70S/Q81H/I100L/L135F): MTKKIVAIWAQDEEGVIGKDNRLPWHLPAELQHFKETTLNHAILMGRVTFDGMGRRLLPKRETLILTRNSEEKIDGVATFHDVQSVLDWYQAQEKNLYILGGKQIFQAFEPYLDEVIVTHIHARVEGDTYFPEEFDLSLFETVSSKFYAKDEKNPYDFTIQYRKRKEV
Source text: Col. 3: DHFR Spn1/1; μM)—the IC50-values in μM against the purified DHFR of the above strain Spn1/1; of Streptococcus pneumoniae.

Row | Compound | MIC [1] [µg/mL] | MIC [2] [µg/mL] | IC50 [3] [nM] | Spn 49619 MIC [1] [µg/mL] | Spn 1/1 MIC [2] [µg/mL] | IC50 ([3]; purified DHFR of S. pneumoniae strain Spn1/1, read-out: Spn 1/1 IC50) [nM]
1 | CCn1ccc2c(OCC3CC3)cc(Cc3cnc(N)nc3N)cc21 [Example 7a, 5-(4-Cyclopropylmethoxy-1-ethyl-1H-indol-6-ylmethyl)-pyrimidine-2,4-diamine] | 0.125 (≈ 0.37 µM) | 4 (≈ 11.9 µM) | 21 |  |  | 
2 | CCn1ccc2c(OS(=O)(=O)N(C)C)cc(Cc3cnc(N)nc3N)cc21 [Example 9, Dimethyl-sulfamic Acid 6-(2,4-diamino-pyrimidin-5-ylmethyl)-1-ethyl-1H-indol-4-yl ester] | 0.03 (≈ 0.0768 µM) | 2 (≈ 5.12 µM) | 29 |  |  | 
3 | CCn1ccc2c(OCC3OCCO3)cc(Cc3cnc(N)nc3N)cc21 [Example 7e, 5-[4-([1,3]Dioxolan-2-ylmethoxy)-1-ethyl-1H-indol-6-ylmethyl]-pyrimidine-2,4-diamine] | 1 (≈ 2.71 µM) | 8 (≈ 21.7 µM) | 210 |  |  | 
4 | CCOc1cc(Cc2cnc(N)nc2N)cc2c1ccn2CC [Example 3, 5-(4-Ethoxy-1-ethyl-1H-indol-6-ylmethyl)-pyrimidine-2,4-diamine] | 0.125 (≈ 0.401 µM) | 4 (≈ 12.8 µM) | 24 |  |  | 
5 | CCn1ccc2c(OS(=O)(=O)CC3CC3)cc(Cc3cnc(N)nc3N)cc21 [Example 8b, Cyclopropyl-methanesulfonic acid 6-(2,4-diamino-pyrimidin-5-ylmethyl)-1-ethyl-1H-indol-4-yl ester] | ≤ 0.015 | 1 (≈ 2.49 µM) | 1.5 |  |  | 
6 | CCC(C)S(=O)(=O)Oc1cc(Cc2cnc(N)nc2N)cc2c1ccn2C (racemic) [Example 5e, rac-Butane-2-sulfonic acid 6-(2,4-diamino-pyrimidin-5-ylmethyl)-1-methyl-1H-indol-4-yl ester] | 0.125 (≈ 0.321 µM) | 8 (≈ 20.5 µM) | 13 |  |  | 
7 | CCn1ccc2c(OS(=O)(=O)CC(C)C)cc(Cc3cnc(N)nc3N)cc21 [Example 8c, 2-Methyl-propane-1-sulfonic acid 6-(2,4-diamino-pyrimidin-5-ylmethyl)-1-ethyl-1H-indol-4-yl ester] | ≤ 0.015 | 2 (≈ 4.96 µM) | 1.5 |  |  | 
8 | CCn1ccc2c(OCC3CCCO3)cc(Cc3cnc(N)nc3N)cc21 (racemic) [Example 7i, rac-5-[1-Ethyl-4-(tetrahydro-furan-2-ylmethoxy)-1H-indol-6-ylmethyl]-pyrimidine-2,4-diamine] | 0.5 (≈ 1.36 µM) | 8 (≈ 21.8 µM) | 13 |  |  | 
9 | CCOc1cc(Cc2cnc(N)nc2N)cc2c1ccn2CC1CC1 [Example 2a, 5-(1-cyclopropylmethyl-4-ethoxy-1H-indol-6-ylmethyl)-pyrimidine-2,4-diamine] | 0.5 (≈ 1.48 µM) | > 8 | 110 |  |  | 
10 | CCC(C)S(=O)(=O)Oc1cc(Cc2cnc(N)nc2N)cc2c1cc(C)n2CC (racemic) [Example 15c, rac-Butane-2-sulfonic acid 6-(2,4-diamino-pyrimidin-5-ylmethyl)-1-ethyl-2-methyl-1H-indol-4-yl ester] | 0.03 (≈ 0.0719 µM) | 2 (≈ 4.79 µM) | 8.7 |  |  | 
11 | CCOc1cc(Cc2cnc(N)nc2N)cc2c1ccn2S(=O)(=O)C(C)C [Example 2d, 5-[4-Ethoxy-1-(propane-2-sulfonyl)-1H-indol-6-ylmethyl]-pyrimidine-2,4-diamine] | 0.5 (≈ 1.28 µM) | > 8 | 330 |  |  | 
12 | CCn1ccc2c(OC)cc(Cc3cnc(N)nc3N)cc21 [Example 7b, 5-(1-Ethyl-4-methoxy-1H-indol-6-ylmethyl)-pyrimidine-2,4-diamine] | 0.5 (≈ 1.68 µM) | 8 (≈ 26.9 µM) | 410 |  |  | 
13 | CCn1c(C)cc2c(OCC3CC3)cc(Cc3cnc(N)nc3N)cc21 [Example 15b, 5-(4-Cyclopropylmethoxy-1-ethyl-2-methyl-1H-indol-6-ylmethyl)-pyrimidine-2,4-diamine] | 0.5 (≈ 1.42 µM) | 8 (≈ 22.8 µM) | 20 |  |  | 
14 | CCOc1cc(Cc2cnc(N)nc2N)cc2c1ccn2C1CCCC1 [Example 2b, 5-(1-Cyclopentyl-4-ethoxy-1H-indol-6-ylmethyl)-pyrimidine-2,4-diamine] | 0.5 (≈ 1.42 µM) | 8 (≈ 22.8 µM) | 150 |  |  | 
15 | CCn1cc(C)c2c(OS(=O)(=O)C(C)C)cc(Cc3cnc(N)nc3N)cc21 [Example 12a, Propane-2-sulfonic acid 6-(2,4-diamino-pyrimidin-5-ylmethyl)-1-ethyl-3-methyl-1H-indol-4-yl ester] | 0.125 (≈ 0.31 µM) | 4 (≈ 9.91 µM) | 15 |  |  | 
16 | CCOc1cc(Cc2cnc(N)nc2N)cc(OCC)c1-n1cccc1 [Epiroprim, reference compound] | 0.125 (≈ 0.354 µM) | 4 (≈ 11.3 µM) | 190 |  |  | 

Row | Compound | MIC [1] [µg/mL] | MIC [2] [µg/mL] | IC50 [3] [nM] | Spn 49619 MIC [1] [µg/mL] | Spn 1/1 MIC [2] [µg/mL] | IC50 ([3]; purified DHFR of S. pneumoniae strain Spn1/1, read-out: Spn 1/1 IC50) [nM]
17 | CC(C)Oc1cc(Cc2cnc(N)nc2N)cc2c1ccn2C [Example 5b, 5-(4-Isopropoxy-1-methyl-1H-indol-6-ylmethyl)-pyrimidine-2,4-diamine] | 0.5 (≈ 1.61 µM) | > 8 | 170 |  |  | 
18 | CCn1cc(CN2CCOCC2)c2c(OCC3CC3)cc(Cc3cnc(N)nc3N)cc21 [Example 10a, 5-(4-Cyclopropylmethoxy-1-ethyl-3-morpholin-4-ylmethyl-1H-indol-6-ylmethyl)-pyrimidine-2,4-diamine] | 0.25 (≈ 0.573 µM) | 8 (≈ 18.3 µM) | 180 |  |  | 
19 | CCn1cc(CN2CCSCC2)c2c(OS(=O)(=O)C(C)C)cc(Cc3cnc(N)nc3N)cc21 [Example 10c, Propane-2-sulfonic acid 6-(2,4-diamino-pyrimidin-5-ylmethyl)-1-ethyl-3-thiomorpholin-4-ylmethyl-1H-indol-4-yl ester] | 1 (≈ 1.98 µM) | 4 (≈ 7.93 µM) | 160 |  |  | 
20 | CCn1cc(CN2CC(C)OC(C)C2)c2c(OS(=O)(=O)C(C)C)cc(Cc3cnc(N)nc3N)cc21 (mixture of isomers) [Example 10d, (cis/trans)-Propane-2-sulfonic acid 6-(2,4-diamino-pyrimidin-5-ylmethyl)-3-(2,6-dimethyl-morpholin-4-ylmethyl)-1-ethyl-1H-indol-4-yl ester] | 1 | 8 | 250 |  |  | 
21 | C#CCOc1cc(Cc2cnc(N)nc2N)cc2c1ccn2CC [Example 7d, 5-(1-Ethyl-4-prop-2-ynyloxy-1H-indol-6-ylmethyl)-pyrimidine-2,4-diamine] | 0.125 (≈ 0.389 µM) | 8 (≈ 24.9 µM) | 71 |  |  | 
22 | CCOc1cc(Cc2cnc(N)nc2N)cc2c1ccn2Cc1ccccc1 [Example 2c, 5-(1-Benzyl-4-ethoxy-1H-indol-6-ylmethyl)-pyrimidine-2,4-diamine] | 2 (≈ 5.36 µM) | > 8 | 460 |  |  | 
23 | CC(C)S(=O)(=O)Oc1cc(Cc2cnc(N)nc2N)cc2c1ccn2C [Example 5c, Propane-2-sulfonic acid 6-(2,4-diamino-pyrimidin-5-ylmethyl)-1-methyl-1H-indol-4-yl ester] | 0.25 (≈ 0.666 µM) | 4 (≈ 10.7 µM) | 84 |  |  | 
24 | CCn1ccc2c(OCC(C)C)cc(Cc3cnc(N)nc3N)cc21 [Example 7g, 5-(1-Ethyl-4-isobutoxy-1H-indol-6-ylmethyl)-pyrimidine-2,4-diamine] | 0.5 (≈ 1.47 µM) | 2 (≈ 5.89 µM) | 29 |  |  | 
25 | CCOc1cc(Cc2cnc(N)nc2N)cc2c1c(-c1cccc(OC)c1)cn2CC [Example 17a, 5-[4-Ethoxy-1-ethyl-3-(3-methoxy-phenyl)-1H-indol-6-ylmethyl]-pyrimidine-2,4-diamine] | 0.5 (≈ 1.2 µM) | 8 (≈ 19.2 µM) | 6.3 |  |  | 
26 | CCn1ccc2c(OS(=O)(=O)C(C)C)cc(Cc3cnc(N)nc3N)cc21 [Example 8a, Propane-2-sulfonic acid 6-(2,4-diamino-pyrimidin-5-ylmethyl)-1-ethyl-1H-indol-4-yl ester] | 0.03 (≈ 0.077 µM) | 1 (≈ 2.57 µM) | 28 |  |  | 
27 | CC(C)CS(=O)(=O)Oc1cc(Cc2cnc(N)nc2N)cc2c1ccn2C [Example 5d, 2-Methyl-propane-1-sulfonic acid 6-(2,4-diamino-pyrimidin-5-ylmethyl)-1-methyl-1H-indol-4-yl ester] | 0.125 (≈ 0.321 µM) | 4 (≈ 10.3 µM) | 36 |  |  | 
28 | 6-(2,4-Diamino-pyrimidin-5-ylmethyl)-4-ethoxy-indole-1-sulfonic Acid dimethylamide [Example 2e] |  |  |  | 0.06 | 4 | 110
29 | CCn1ccc2c(OCC3(C)CC3)cc(Cc3cnc(N)nc3N)cc21 [Example 7h, 5-[1-Ethyl-4-(1-methyl-cyclopropylmethoxy)-1H-indol-6-ylmethyl]-pyrimidine-2,4-diamine] | 1 (≈ 2.85 µM) | 4 (≈ 11.4 µM) | 15 |  |  | 
30 | CCn1cc(CN2CCOCC2)c2c(OS(=O)(=O)CC3CC3)cc(Cc3cnc(N)nc3N)cc21 [Example 10e, Cyclopropyl-methanesulfonic acid 6-(2,4-diamino-pyrimidin-5-ylmethyl)-1-ethyl-3-morpholin-4-ylmethyl-1H-indol-4-yl ester] | 0.125 (≈ 0.25 µM) | 4 (≈ 7.99 µM) | 4.8 |  |  | 
31 | CCn1cc(C)c2c(OS(=O)(=O)CC3CC3)cc(Cc3cnc(N)nc3N)cc21 [Example 12b, Cyclopropyl-methanesulfonic acid 6-(2,4-diamino-pyrimidin-5-ylmethyl)-1-ethyl-3-methyl-1H-indol-4-yl ester] | ≤ 0.015 | 4 (≈ 9.63 µM) | 3.7 |  |  | 
32 | COc1cc(Cc2cnc(N)nc2N)cc(OC)c1OC [Trimethoprim, reference compound] | 4 (≈ 13.8 µM) | > 32 |  |  |  | 
